Read-outs that look alike come from different tables or passages of the source.
Columns and labels:
HepG2 cells [1] = assay: HepG2 cytotoxicity assay; settings: HepG2 cytotoxicity unified across the three screens
Outline: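 Percent inhibition derived from fluorescent viability readout, normalised to DMSO (negative) and 50 μM doxorubicin (positive). Compound incubation lasted 48 h at 37°C, 5% CO2, with 2,500 HepG2 cells/well in MEM plus 10% FBS and 1% NEAA.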

[2] = tested on: P. falciparum female gametocytes; assay: P. falciparum female gametogenesis assay (Pf FGAA); settings: 1: YES; 0: NO
[3] = tested on: P. falciparum late stage (stages IV-V) gametocytes; assay: P. falciparum late stage gametocyte ATP depletion assay (Pf GC-ATP); settings: 1: YES; 0: NO
[4] = tested on: P. falciparum late stage (stages IV-V) gametocytes; parameters: method as in Almela et al 2016; settings: TCAMS screen comparison; ref Almela et al 2016; read-out: Pf GCT ATP IC50; cited from earlier work
HepG2 cells [5] = settings: cited from earlier work
[6] = tested on: P. falciparum female gametocytes; parameters: method as in Miguel-Blanco et al 2017; settings: TCAMS screen comparison; ref Miguel-Blanco et al 2017; read-out: Pf FGAA IC50; cited from earlier work
[7] = value reported with the Pf FGAA screen, ref Miguel-Blanco et al 2017
[8] = value reported with the Pf GCT ATP screen, ref Almela et al 2016

SMILES | Unified cytotox (HepG2 cells [1]) | Is compound selective in assay? Pf FGAA active? [2] | Is compound selective in assay? Pf GC-ATP active? [3] | IC50 [4] | HepG2 cytoxicity (HepG2 cells [5]; [7]) | HepG2 cytoxicity (HepG2 cells [5]; [8]) | IC50 [6]
O=C(c1ccc([N+](=O)[O-])o1)N1CCC(Cc2ccc(C(F)(F)F)cc2)CC1 [TCMDC-124805] | 20.58 µM | 1 (1: YES) | 1 (1: YES) | 260 nM | 27.05 µM | 14.11 µM | 160 nM
CCOc1ccc2nc3cc(NC(=O)c4ccco4)ccc3c(N)c2c1 [TCMDC-125004] | 17.72 µM | 0 (0: NO) | 1 (1: YES) | 190 nM | 25.15 µM | 10.3 µM | 4550 nM
Cc1ccccc1OCC(O)CNC1CCC(NCC(O)COc2ccccc2C)CC1 (stereo not shown) [TCMDC-125142] | 3.93 µM | 0 (0: NO) | 1 (1: YES) | 140 nM | 4.07 µM | 3.78 µM | 1110 nM
Cc1c(Cl)cccc1N=C(S)NN=Cc1ccccn1 [TCMDC-125487] | 100.00 µM | 1 (1: YES) | 1 (1: YES) | 270 nM | >100 µM | >25 µM | 28 nM
Fc1ccc(NC(S)=NN=Cc2ccccn2)cc1 [TCMDC-125521] | 100.00 µM | 1 (1: YES) | 1 (1: YES) | 120 nM | >100 µM | 23.35 µM | 27.1 nM
SC(=Nc1ccc(Cl)c(Cl)c1)NN=Cc1ccccn1 [TCMDC-125522] | 6.28 µM | 1 (1: YES) | 1 (1: YES) | 70 nM | 3.47 µM | 9.1 µM | 80 nM
c1ccc2sc(Sc3ncnc4sccc34)nc2c1 [TCMDC-125539] | 100.00 µM | 1 (1: YES) | 1 (1: YES) | 500 nM | >100 µM | >25 µM | 140 nM
S=C(NN=Cc1ccccn1)NC1CC2C=CC1C2 (stereo not shown) [TCMDC-125752] | 0.70 µM | 1 (1: YES) | 0 (0: NO) | 110 nM |  | 0.7 µM | 15.3 nM
COc1ccc(CCNCCCCCCNCCc2ccc(-c3ccccc3)cc2)cc1OC.Cl [TCMDC-131267] | 5.07 µM | 0 (0: NO) | 1 (1: YES) | 170 nM | 6.90 µM | 3.25 µM | 1260 nM
COc1ccc(CCNCCCCCCNCCc2ccc(Cl)c3ccccc23)cc1OC.Cl [TCMDC-131270] | 2.68 µM | 0 (0: NO) | 1 (1: YES) | 130 nM | 2.12 µM | 3.23 µM | 580 nM
Br.Oc1ccc(CCNCCCCCCNCCc2ccc(Cl)c3ccccc23)cc1O [TCMDC-131271] | 12.36 µM | 0 (0: NO) | 1 (1: YES) | 530 nM | 11.22 µM | 13.5 µM | 2380 nM
COc1ccc(CCNCCCCCCNCCc2ccc(Cl)cc2)c(Cl)c1OC.Cl [TCMDC-131272] | 5.87 µM | 0 (0: NO) | 1 (1: YES) | 260 nM | 5.54 µM | 6.2 µM | 830 nM
Br.CCCCc1ccc(CCNCCCCCCNCCc2ccc(O)c(O)c2)cc1 [TCMDC-131281] | 6.41 µM | 0 (0: NO) | 1 (1: YES) | 540 nM | 4.63 µM | 8.19 µM | 2150 nM
CCC(CSC1CCCCC1)N(C)CCN(C)C(CC)CSC1CCCCC1.Cl (stereo not shown) [TCMDC-131456] | 0.47 µM | 0 (0: NO) | 0 (0: NO) | 1400 nM | 0.0654 µM | 0.87 µM | 1250 nM
C[C@H](Cc1ccc(C[C@@H](C)NC[C@H](O)c2cccc(Cl)c2)cc1)NC[C@H](O)COc1ccccc1.Cl [TCMDC-131549] | 4.94 µM | 0 (0: NO) | 0 (0: NO) | 920 nM | 5.19 µM | 4.7 µM | 1390 nM
C[C@H](Cc1ccc(CCc2ccc(C[C@@H](C)NC[C@H](O)c3cccc(Cl)c3)cc2)cc1)NC[C@H](O)c1cccc(Cl)c1.Cl [TCMDC-131551] | 3.68 µM | 0 (0: NO) | 1 (1: YES) | 270 nM | 4.27 µM | 3.1 µM | 2050 nM
C[C@H](Cc1ccc(Oc2ccc(C[C@@H](C)NC[C@H](O)c3cccc(Cl)c3)cc2)cc1)NC[C@H](O)c1cccc(Cl)c1.Cl [TCMDC-131560] | 1.98 µM | 0 (0: NO) | 0 (0: NO) | 270 nM | 2.04 µM | 1.91 µM | 720 nM
C[C@H](Cc1ccc(OCCCCCOc2ccc(C[C@@H](C)NC[C@H](O)c3cccc(Cl)c3)cc2)cc1)NC[C@H](O)c1cccc(Cl)c1.Cl [TCMDC-131563] | 1.95 µM | 0 (0: NO) | 0 (0: NO) | 550 nM | 2.11 µM | 1.79 µM | 960 nM
N=C(/N=C(/NCCCCCCN/C(=N\C(=N)Nc1ccc(Cl)cc1)N1CCCCC1)N1CCCCC1)Nc1ccc(Cl)cc1 [TCMDC-131811] | 33.57 µM | 0 (0: NO) | 1 (1: YES) | 380 nM | 44.23 µM | 22.9 µM | 7870 nM
N=C(/N=C(/NCCCCCCN/C(=N/C(=N)NCc1ccc(Cl)c(Cl)c1)N1CCCCC1)N1CCCCC1)NCc1ccc(Cl)c(Cl)c1 [TCMDC-131816] | 43.18 µM | 1 (1: YES) | 1 (1: YES) | 370 nM | 43.18 µM | >25 µM | 2610 nM
